Values quoted from earlier work as cited in PubChem BioAssay AID1259409 (Chemical Carcinogenesis Research Information System (CCRIS), 2018).

Test system: rodent chemically induced tumor inhibition, incidence and multiplicity
Test: CCRIS tumor inhibitor studies
Settings: Carcinogen: UV-B IRRADIATION, Dose [Inhibitor]: 0, 125 UG IN DMSO ADMINISTERED IMMEDIATELY PRIOR TO UV-B IRRADIATION AND 4 AND 24 HR POST IRRADIATION, CYCLE REPEATED 3/, Route [Inhibitor]: SUBCUTANEOUS, Species: MOUSE, Strain/Sex: SKH-1/FEMALE, Dose [Carcinogen]: 0.09 J/CM2 3/WK, Promoter: NONE USED

## CC(C)C(NC(=O)[C@@H]1CCCN1C(=O)[C@@H](NC(=O)c1ccc(C(=O)NS(=O)(=O)c2ccc(Br)cc2)cc1)C(C)C)C(=O)C(F)(F)F (some centres not stated)
Target Tissue: Type of Lesion: SKIN: CARCINOMA
  tumour outcome (control, treated, inhibition, significance): 5/5 (100%), 2/5 (40%), 60%, not calculated
Target Tissue: Type of Lesion: SKIN: PAPILLOMA
  tumour outcome (control, treated, inhibition, significance): 5/5 (100%), 3/5 (60%), 40%, not calculated
